Experimental data from the supplement of paper PMC7600603.

How the values were obtained:
DLD1 NRF2-WT [1] = test: drug sensitivity score (DSS) cytotoxicity (DSS score); higher = more toxic; extreme values may be limits of the assay; settings: 72 h; CellTox Green cytotoxicity
Outline: (§1)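 Isogenic DLD1 colorectal cancer cells, either NRF2 wild-type or CRISPR gain-of-function, were grown in DMEM with 10% FBS. They were exposed in 384-well plates to library compounds at 5 concentrations spanning a 10,000-fold range. After 72 h, cytotoxicity was read by CellTox Green on a Pherastar FS reader and normalised to vehicle wells and 100-μM positive-control wells. TC50 and drug sensitivity score (a normalised area under the curve) came from logistic dose-response fits.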

DLD1 NRF2-GOF [2] = test: as above; settings: 72 h; CellTox Green cytotoxicity
Outline: as §1

DLD1 NRF2-WT [3] = test: TC50 cytotoxicity; higher = less toxic; settings: 72 h; CellTox Green cytotoxicity
Outline: as §1

DLD1 NRF2-GOF [4] = test: TC50 cytotoxicity; higher = less toxic; settings: 72 h; CellTox Green cytotoxicity
Outline: as §1

DLD1 NRF2-WT [5] = settings: 72 h; CellTiter-Glo viability
Outline: (§2)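 DLD1 colorectal cancer cells, an isogenic pair either NRF2 wild-type or carrying a CRISPR gain-of-function, were cultured in DMEM with 10% FBS and treated in 384-well plates with library compounds at 5 concentrations across a 10,000-fold range. CellTiter-Glo viability was read on a Pherastar FS reader after 72 h and normalised to vehicle wells and 100-μM positive-control wells. Four-parameter logistic dose-response fits were applied. EC50 and drug sensitivity score, a normalised area under the curve, were taken from these fits.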

DLD1 NRF2-GOF [6] = settings: 72 h; CellTiter-Glo viability
Outline: as §2

DLD1 NRF2-WT [7] = test: drug sensitivity score (DSS) viability (DSS score); higher = more sensitive; extreme values may be limits of the assay; settings: 72 h; CellTiter-Glo viability
Outline: as §2

DLD1 NRF2-GOF [8] = test: as above; settings: 72 h; CellTiter-Glo viability
Outline: as §2

SMILES	drug sensitivity score (DLD1 NRF2-WT [1])	drug sensitivity score (DLD1 NRF2-GOF [2])	TC50 cytotoxicity (DLD1 NRF2-WT [3]) [µM]	TC50 cytotoxicity (DLD1 NRF2-GOF [4]) [µM]	EC50 viability (DLD1 NRF2-WT [5]) [µM]	EC50 viability (DLD1 NRF2-GOF [6]) [µM]	drug sensitivity score (DLD1 NRF2-WT [7])	drug sensitivity score (DLD1 NRF2-GOF [8])
Nc1nc2[nH]cnc2c(=S)[nH]1 [Thioguanine]	0.2	0	> 10	> 10	3.5	1.29	4.4	9.4
O=C1NC(=O)[C@@H](c2cn3c4c(cccc24)CCC3)[C@@H]1c1c[nH]c2ccccc12 [Tivantinib]	1.4	0.9	> 1	> 1	0.164	0.242	6.7	5
COc1cc2nccc(Oc3ccc(NC(=O)Nc4cc(C)on4)c(Cl)c3)c2cc1OC [Tivozanib]	2.3	4.5	2.92	2.64	3.04	3.59	3.1	2.3
CC[C@@]1(O)C(=O)OCc2c1cc1n(c2=O)Cc2cc3c(CN(C)C)c(O)ccc3nc2-1 [Topotecan]	3.1	1.9	2.2	3.39	1.5	1.09	8.1	9.2
CN(C)CCOc1ccc(/C(=C(/CCCl)c2ccccc2)c2ccccc2)cc1 [Toremifene]	0	0	> 10	> 10	4.21	2.15	2.2	4.8
CC1=C(/C=C/C(C)=C/C=C/C(C)=C/C(=O)O)C(C)(C)CCC1 [Tretinoin]	0	0	> 10	> 10	0.001	0.0965	17.7	12.1
O=c1[nH]c(=O)n([C@H]2C[C@H](O)[C@@H](CO)O2)cc1C(F)(F)F [Trifluridine]	0	0	> 10	> 10	> 10	2.51	0	2.2
CN1CCc2c(c3ccccc3n2Cc2ccc(C(=O)NO)cc2)C1 [Tubastatin A]	0	0	> 10	> 10	0.295	1.56	4	4.1
CC(C)Nc1cc(-c2c[nH]c(C(=O)N[C@H](CO)c3cccc(Cl)c3)c2)c(Cl)cn1 [Ulixertinib]	0	0	> 10	> 10	1.47	1.14	6.1	6.3
CC[C@@H]1CN(C(=O)NCC(F)(F)F)C[C@@H]1c1cnc2cnc3[nH]ccc3n12 [Upadacitinib]	0	0	> 10	> 10	> 10	0.0101	0	10.7
Cn1ncc(Cl)c1-c1cc(C(=O)N[C@H](CN)Cc2ccc(F)c(F)c2)oc1Cl [Uprosertib]	0	0	> 10	> 10	> 10	> 10	3.4	0
CNC(=O)c1ccccc1Nc1cc(Nc2ccc(N3CCOCC3)cc2OC)ncc1C(F)(F)F [VS-4718]	0	0	> 10	> 10	1.94	1.6	4.3	4.7
O=c1ncn2nc(Sc3ccc(F)cc3F)ccc2c1-c1c(Cl)cccc1Cl [VX-745]	0	0	> 10	> 10	> 10	> 10	1.4	0.2
CCCCC(=O)OCC(=O)[C@]1(O)Cc2c(O)c3c(c(O)c2[C@@H](O[C@H]2C[C@H](NC(=O)C(F)(F)F)[C@H](O)[C@H](C)O2)C1)C(=O)c1c(OC)cccc1C3=O [Valrubicin]	0	0	> 5	> 5	0.547	0.479	6.8	8.1
C[C@]1(c2nc3c(C(N)=O)cccc3[nH]2)CCCN1 [Veliparib]	0	0	> 10	> 10	1.57	> 10	2.9	0
CCCS(=O)(=O)Nc1ccc(F)c(C(=O)c2c[nH]c3ncc(-c4ccc(Cl)cc4)cc23)c1F [Vemurafenib]	0	0	> 10	> 10	> 10	> 10	0.2	0
CCCCOc1nc(N)c2c(n1)N(Cc1cccc(CN3CCCC3)c1)CC(=O)N2 [Vesatolimod]	0	0	> 10	> 10	> 10	> 10	0	0.1
CNC(=O)c1cccc(-c2ccc3c(N4CCOC[C@@H]4C)nc(N4CCOC[C@@H]4C)nc3n2)c1 [Vistusertib]	0	0	> 10	> 10	0.371	0.675	11.9	9.9
FC(F)c1nc2ccccc2n1-c1nc(N2CCOCC2)nc(N2CCOCC2)n1 [ZSTK474]	0	0	> 10	> 10	0.12	0.179	11.4	6.2
Cc1sc2c(c1C)C(c1ccc(Cl)cc1)=N[C@@H](CC(=O)NCCCCNC(=O)COc1cccc3c1C(=O)N(C1CCC(=O)NC1=O)C3=O)c1nnc(C)n1-2 (stereo not given in full) [dBET1]	0	0	> 10	> 10	0.62	> 10	6.5	0.7
